# Assay results published in US20210371351A1, “MIXTURES COMPRISING AT LEAST TWO DIFFERENT NITRIFICATION INHIBITORS SELECTED FROM 2-(3,4-DIMETHYL-1H-PYRAZOL-1-YL)SUCCINIC ACID (DMPSA), 3,4-DIMETHYL PYRAZOLIUM GLYCOLATE (DMPG) AND OTHER COMPOUNDS” (BASF SE, priority 2017, published 2021).
# System: nitrification
# Test: Example 3: soil column trial (soil Limburgerhof) with ammonium sulfate, DMPP, DMPSA or DMPP+DMPSA; leaching at 5° C., incubation 10 d or 20 d at 15° C.; NH4-N/NO3-N, % inhibition of NO3-N formation (Böhland), Colby
# Conditions: 0.05% DMPP, 0.45% DMPSA
# Source text: The effect on NH4^+ retention and NH4^+ to NO3^− ratios in the soil after fertilization of ammonium sulfate with the addition of DMPP, DMPSA or a combination of DMPP and DMPSA was investigated in column trials simulating climatic conditions of spring time in central Europe. Soil Limburgerhof (pH(CaCl2) 6.8, texture: 73% sand; 24% silt, 3% clay) was filled dry into a glass column with an inner width of 4 cm. At the bottom 0.4 g cotton wool was placed above which a frit (Co. Robu, pore size 1) was placed above which 100 g of 2 mm sieved soil Limburgerhof was layered. The soil height in the column was about 7 cm. Before fertilization the soil was brought to about 60% of its water holding capacity (WHC) be adding 14.4 mL of deionized water. Per column 10 mg NH4—N as ammonium sulfate was fertilized or not (control) together or not with 0.05% DMPP (DMPP obtained from BASF SE), 0.45% DMPSA (DMPSA used as free acid obtained from BASF SE) and 0.05% DMPP plus 0.45% DMPSA (% of nitrification inhibitor w/w of NH4—N). Every treatment was replicated three times.
# After fertilization, 50 mL demineralized water was carefully and slowly placed on top of each column which equals about 31 mm precipitation. After 24 h the eluate was collected and by sucking off the soil to bring it back to about 60% of its WHC. All handlings including soil preparation, fertilization and the temperature of the water for both wetting the soil and the artificial precipitation up to the collection of the eluate 24 h after fertilization was performed at 5° C.
# Thereafter, the columns were incubated for 10 d or 20 d at constantly 15° C. in an incubator. After 7 d and 14 d, water was added by weight where needed to bring the soils uniformly to 60% WHC. After 10 d or 20 d, the soil was removed from the columns and extracted with 1% (w/w) K2SO4 solution by shaking for 2 h at room temperature. The filtrated extract was then analyzed for NH4^+ and NO3 colorimetrical by an autoanalyzer.
# To calculate the inhibition of nitrate formation by the nitrification inhibitors during the incubation, the above-mentioned Böhland equation was used. To examine synergistic effects of the combination of DMPP+DMPSA the formula by Colby (Colby, S.R., “Calculating synergistic and antagonistic responses of herbicide Combinations”, Weeds, 15, pp. 20-22, 1967) was used. To determine background levels of NH4+ to NO3−, every treatment was also extracted immediately after fertilization and after leaching prior to the further incubation at 15° C. for 10 d or 20 d.
# [1] = 10 days of incubation at 15° C.
# [2] = 20 days of incubation at 15° C.
substance,measurement,setting,value
"2-(3,4-dimethyl-1H-pyrazol-1-yl)succinic acid and/or 2-(4,5-dimethyl-1H-pyrazol-1-yl)succinic acid [DMPSA]",During incubation: % inhibition of NO3—N formation by NI acc. to Böhland equation (1973) (MV),[1],14.2%
same,Net NI effect % NH4 from fertilized NH4 (MV),[1],6.88%
same,Ratio NH4—N/NO3—N (MV),[1],0.53
same,Soil mg/100 g NH4—N (MV),[1],3.16 mg/100 g
same,Soil mg/100 g NO3—N (MV),[1],6.30 mg/100 g
same,During incubation: % inhibition of NO3—N formation by NI acc. to Böhland equation (1973) (MV),[2],4.8%
same,Net NI effect % NH4 from fertilized NH4 (MV),[2],1.79%
same,Ratio NH4—N/NO3—N (MV),[2],0.02
same,Soil mg/100 g NH4—N (MV),[2],0.19 mg/100 g
same,Soil mg/100 g NO3—N (MV),[2],9.60 mg/100 g
